Here are results for 9 compounds from ChEMBL document CHEMBL1139603, “Synthesis and structure-activity relationship of 3-phenyl-3H-quinazolin-4-one derivatives as CXCR3 chemokine receptor antagonists” (Bioorg Med Chem Lett, 2005).

Molecules are shown by their SMILES. A value given as a limit tells only on which side of the number the result lay.

For this assay, the target named is T1, C-X-C chemokine receptor type 3 (Homo sapiens, UniProt P49682).
T1 sequence (P49682 whole entry): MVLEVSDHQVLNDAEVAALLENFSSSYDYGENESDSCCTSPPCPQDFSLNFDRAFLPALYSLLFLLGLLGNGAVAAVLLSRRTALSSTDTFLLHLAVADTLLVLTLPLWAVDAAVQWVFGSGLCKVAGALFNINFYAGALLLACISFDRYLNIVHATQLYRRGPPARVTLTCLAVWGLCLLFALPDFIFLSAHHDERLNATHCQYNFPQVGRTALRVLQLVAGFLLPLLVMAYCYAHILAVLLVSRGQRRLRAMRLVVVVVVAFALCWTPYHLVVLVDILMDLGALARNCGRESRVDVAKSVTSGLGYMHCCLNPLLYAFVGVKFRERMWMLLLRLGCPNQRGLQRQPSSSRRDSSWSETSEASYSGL
Nature of the assay: Inhibitory concentration against […] expressed in human HEK293 cells using [125I]CXCL10 as radioligand. In kind it is cell-based.
A word on the IC50: it is the point on the concentration scale where inhibition reaches its midpoint. The low end stands for greater potency, the high end for weaker potency. Consider `CCCCCCCCCC(=O)N(CCN(C)C)C(C)c1nc2ccccc2c(=O)n1-c1ccc(C#N)cc1` (centres undefined), for which the IC50 came out at 0.93 µM. As to `CCCCCCCCCC(=O)N(CCN(C)C)C(C)c1nc2ccccc2c(=O)n1-c1ccccc1` (centres undefined), the IC50 was 15 µM. With `CCCCCCCCCC(=O)N(CCN(C)C)C(C)c1nc2ccccc2c(=O)n1-c1cccc(C#N)c1` (centres undefined) the figure was 5.8 µM; with `CCCCCCCCCC(=O)N(CCN(C)C)C(C)c1nc2ccccc2c(=O)n1-c1ccc(F)cc1` (centres undefined), 3.2 µM. In the case of `CCCCCCCCCC(=O)N(CCN(C)C)C(C)c1nc2ccccc2c(=O)n1-c1ccc(O)cc1` (centres undefined), the IC50 was above 100 µM. Compound `CCCCCCCCCC(=O)N(CCN(C)C)C(C)c1nc2ccccc2c(=O)n1-c1ccc(C(F)(F)F)cc1` (centres undefined) showed an IC50 above 100 µM. For `CCCCCCCCCC(=O)N(CCN(C)C)C(C)c1nc2ccccc2c(=O)n1-c1ccc(C)cc1` (centres undefined), the IC50 is 3.1 µM. With `CCCCCCCCCC(=O)N(CCN(C)C)C(C)c1nc2ccccc2c(=O)n1-c1ccc(OC)cc1` (centres undefined) the figure was 3.3 µM; with `CCCCCCCCCC(=O)N(CCN(C)C)C(C)c1nc2ccccc2c(=O)n1-c1ccccc1C#N` (centres undefined), 10 µM.
